Data set [1] has as its system MDA-MB-231. The data set is described as follows: MTT cytotoxicity assay, MDA-MB-231. The class given is cell-based, human. The note with it: Homo sapiens. The method, then: (§1) The cytotoxic assay of 11 naturally occurring and 19 synthesized phenanthrenes was carried out on a diverse set of human liver (HepG2 and Hep3B), oral (Ca9-22), lung (A549) and breast (MEA-MB-231 and MCF7) cancer cell lines, and a human fetal lung fibroblast (MRC-5) cell line (Tables 1 and 2).
(§2) Compounds were tested against human liver (HepG2 and Hep3B), oral (Ca9-22), lung (A549), breast (MEA-MB-231 and MCF7) cancer cell lines, and the human fetal lung fibroblast (MRC-5) cell line using an established colorimetric MTT assay protocol. The absorbance was measured at 550 nm using a microplate reader. The IC50 is the concentration of agent that reduced cell growth by 50% under the experimental conditions.
A general note: Tetrazolium dyes change colour on reduction, which living cells bring about.

The test system of data set [2] is MCF-7. The data set is described as follows: MTT cytotoxicity assay, MCF-7. The class given is cell-based, human. The following applies: Homo sapiens; for IC50: MTT; for MCF-7 activity class (from IC50): MCF7, Table S3, read-out: Scale Exptl. (MCF-7 activity class). As to the method:
as §1, §2
The pharmacophore modeling with Catalyst HypoGen was performed via Discovery Studio 2.1 (Accelrys, San Diego, CA, USA). Twenty-nine phenanthrene derivatives were collected from the natural plant, C. arisanensis, and from chemical synthesis (Figure 2). Cytotoxicity against MCF-7 cells was determined by the MTT assay and the concentration (µg/mL) of test compound which inhibited 50% of the cancer cells (IC50) was used in the generation of the pharmacophore model. An IC50 value of >20 µg/mL was defined as 20 µg/mL. All experimental IC50 values spanned about 2–3 orders of magnitude from 0.09 to 20 µg/mL. The 2D/3D structures of compounds were generated using ChemBioOffice 2008 (Cambridge Scientic Computing, Cambridge, Massachusetts, USA) and then optimized in a Dreiding force field. The conformational ensemble of each compound was generated using the best conformational analysis method based on a CHARMM force field with a 20 kcal/mol energy threshold above the global minimum. A maximum limit of 255 conformations was used to cover maximum conformational space. The best 3D arrangements of chemical functionalities should explain the activity variations among the 29 compounds. Thirty runs with different parameters were performed for the best pharmacophore hypothesis. Four chemical features, including hydrogen-bond acceptor (HBA), hydrogen-bond donor (HBD), hydrophobic (HYD), and aromatic ring (AR) features, were also tested during the building of pharmacophore hypotheses (Table S1; Text S1). The best hypotheses were selected via a correlation and a cost analysis in Catalyst HypoGen.

Data set [3] has as its system MRC-5. The data set is described as follows: MTT cytotoxicity assay, MRC-5 fetal lung fibroblast. The class given is cell-based, human. The note with it: Homo sapiens, normal fetal lung fibroblast. The method, then:
as §1, §2

For data set [4], the system named is human cancer cell lines. The data set is described as follows: MTT cytotoxicity assay, ranges over the cancer cell line panel. The class given is cell-based. As to the method: as §1, §2
Data set [5] has as its system Hep3B. The data set is described as follows: MTT cytotoxicity assay, Hep3B. The class given is cell-based, human. The following applies: Homo sapiens, Hep3B. As to the method:
as §1, §2

The target in data set [6] is T1, topoisomerase IIα (Homo sapiens, UniProt P11388).
T1 construct: purchased TopoGEN, Inc
The data set is described as follows: Topoisomerase II DNA cleavage assay (Topo II Drug Screening Kit). The class given is biochemical. The note with it: for formation of linear DNA (Topo IIα DNA cleavage complex): pHOT plasmid DNA, topoisomerase IIα. As to the method:
From the ChemGPS-NP analysis, it seems that the MOA for 3-methoxy-1,4-PQs might processes cytotoxicity as a topoisomerase II inhibitor.
Figure 10 Topoisomerase II DNA cleavage assay. An in vitro assay was used to assess the effect of compounds 6a and 5a on the DNA cleavage activity of human TopoII. Etoposide was the positive control. Control lane: TopoIIα + plasmid DNA. DMSO lane: TopoIIα + plasmid DNA + DMSO.
Topoisomerase II assay was performed by using a Topo II Drug Screening Kit (TopoGEN, Inc.). In brief, 0.1 µg of pHOT plasmid DNA was incubated with 2 units of topoisomerase IIα in 20 µL assay buffer at 37°C for 40 min in the presence of tested compounds (6a, 5a) and control drug, etoposide, respectively. 2 µL of 10% SDS and 2.5 µL of 10 mg/mL proteinase K were added into the reaction sample and then incubated for 30 min at 37°C to digest topoisomerase IIα. The samples were mixed with 2 µL of loading buffer and cleaned up by adding an equal volume of phenol:chloroform:isoamyl alcohol (25∶24∶1) according to the description. The sample was mixed by vortex and centrifuge for 10 sec. An aliquot (10 µL) of the upper aqueous part was analyzed by electrophoresis with 2% agarose gel containing 0.5 µg/mL of ethidium bromide.

Data set [7] relates to Ca9-22. The data set is described as follows: MTT cytotoxicity assay, Ca9-22. The following applies: Homo sapiens. The class given is cell-based, human. As to the method:
as §1, §2

In data set [8] the test system is HepG2. The data set is described as follows: MTT cytotoxicity assay, HepG2. The class given is cell-based, human. The following applies: Homo sapiens. As to the method: as §1, §2
Data set [9] has as its system A549. The data set is described as follows: MTT cytotoxicity assay, A549. The class given is cell-based, human. The following applies: Homo sapiens. The method, then: as §1, §2
The subject of data set [10] is human topoisomerase IIα. More on the design: method as in PMID 15182198. The following applies: cited from earlier work.
Setting [11] is: MDA-MB-231, Table 2, synthesized phenanthrenes.
Setting [12] is: MCF7, Table 2, synthesized phenanthrenes.
[13] abbreviates: MRC5, Table 2, synthesized phenanthrenes.
The mark [14] stands for this setting: Table 2, synthesized phenanthrenes.
Setting [15] is: Ca9-22, Table 2, synthesized phenanthrenes.
The mark [16] stands for this setting: HepG2, Table 2, synthesized phenanthrenes.
Setting [17] is: A549, Table 2, synthesized phenanthrenes.

In brackets after ≈: the same amount, converted by molar mass. Where only a bound is given, the exact number is not on record here.

Here are results for three compounds from paper PMC3362575, “Synthesis and Biological Evaluation of Phenanthrenes as Cytotoxic Agents with Pharmacophore Modeling and ChemGPS-NP Prediction as Topo II Inhibitors” (PLoS ONE, 2012).

T1 sequence (P11388 whole entry): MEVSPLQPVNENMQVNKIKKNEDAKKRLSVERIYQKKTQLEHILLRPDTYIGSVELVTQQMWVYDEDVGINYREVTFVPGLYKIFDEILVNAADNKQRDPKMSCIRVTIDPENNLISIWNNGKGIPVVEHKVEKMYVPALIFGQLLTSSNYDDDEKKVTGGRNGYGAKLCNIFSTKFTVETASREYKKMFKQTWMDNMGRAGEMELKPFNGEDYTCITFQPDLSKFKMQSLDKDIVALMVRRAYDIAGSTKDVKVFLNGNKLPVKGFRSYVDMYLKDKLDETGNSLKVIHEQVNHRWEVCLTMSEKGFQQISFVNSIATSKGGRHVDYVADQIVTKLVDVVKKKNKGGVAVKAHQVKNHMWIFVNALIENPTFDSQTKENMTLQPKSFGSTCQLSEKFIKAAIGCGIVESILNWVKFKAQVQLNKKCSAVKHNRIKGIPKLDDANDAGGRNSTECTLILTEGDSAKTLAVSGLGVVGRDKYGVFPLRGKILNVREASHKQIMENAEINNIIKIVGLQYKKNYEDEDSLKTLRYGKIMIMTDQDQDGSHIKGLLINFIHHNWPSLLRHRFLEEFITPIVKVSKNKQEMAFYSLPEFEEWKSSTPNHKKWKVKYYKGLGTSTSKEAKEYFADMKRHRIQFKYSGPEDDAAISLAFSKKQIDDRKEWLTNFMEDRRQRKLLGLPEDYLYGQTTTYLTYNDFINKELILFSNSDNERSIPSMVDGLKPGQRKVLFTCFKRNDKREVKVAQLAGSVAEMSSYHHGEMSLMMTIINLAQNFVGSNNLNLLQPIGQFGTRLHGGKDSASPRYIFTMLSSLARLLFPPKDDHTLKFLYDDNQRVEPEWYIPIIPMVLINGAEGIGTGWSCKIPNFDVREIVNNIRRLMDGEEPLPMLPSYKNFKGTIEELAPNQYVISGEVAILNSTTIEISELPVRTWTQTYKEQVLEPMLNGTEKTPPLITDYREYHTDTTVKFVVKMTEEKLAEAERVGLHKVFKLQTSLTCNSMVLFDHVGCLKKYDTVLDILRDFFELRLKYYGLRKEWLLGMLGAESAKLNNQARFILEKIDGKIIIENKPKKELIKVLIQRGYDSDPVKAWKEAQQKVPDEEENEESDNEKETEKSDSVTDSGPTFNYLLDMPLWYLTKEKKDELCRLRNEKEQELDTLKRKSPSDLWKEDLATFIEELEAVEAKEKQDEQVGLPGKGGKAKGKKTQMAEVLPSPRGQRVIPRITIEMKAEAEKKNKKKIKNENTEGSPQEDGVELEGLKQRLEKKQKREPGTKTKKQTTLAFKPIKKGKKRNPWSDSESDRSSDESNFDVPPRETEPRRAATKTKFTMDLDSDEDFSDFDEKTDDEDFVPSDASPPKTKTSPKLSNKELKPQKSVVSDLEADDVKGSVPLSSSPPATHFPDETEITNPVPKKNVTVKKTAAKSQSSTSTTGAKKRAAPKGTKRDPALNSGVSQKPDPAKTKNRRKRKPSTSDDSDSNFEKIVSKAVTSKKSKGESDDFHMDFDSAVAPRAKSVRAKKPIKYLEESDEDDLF

Turning to `COC1=CC(=O)c2ccc3cc(OC)c(OC)c(O)c3c2C1=O` [Compound 6a, 5-Hydroxy-3,6,7-trimethoxy-1,4-phenanthrenequinone], the IC50 was 0.64 ± 0.06 µg/mL (≈ 2.04 µM) in data set [1] (MDA-MB-231, Table 1, natural phenanthrenes); 0.89 ± 0.01 µg/mL (≈ 2.83 µM) in [1] (setting [11]); 0.09 µg/mL (≈ 0.286 µM) in [2] (MCF7, Table 1, natural phenanthrenes); 0.2 µg/mL (≈ 0.636 µM) in data set [2] (setting [12]); 0.65 µg/mL (≈ 2.07 µM) in data set [3] (MRC5, Table 1, natural phenanthrenes); 0.6 ± 0.05 µg/mL (≈ 1.91 µM) in [3] (setting [13]). Besides, the IC50 in data set [4] (Homo sapiens, range over the cancer cell lines tested, read-out: IC50 against various / all human cancer cell lines) was 0.08 to 1.66 µg/mL (≈ 0.255 to 5.28 µM); in data set [5] (Table 1, natural phenanthrenes), 0.22 µg/mL (≈ 0.7 µM); in [5] (setting [14]) it was 0.19 ± 0.01 µg/mL (≈ 0.605 µM); in data set [7] (Ca9-22, Table 1, natural phenanthrenes), 0.17 ± 0.01 µg/mL (≈ 0.541 µM); in data set [7] (setting [15]) it was 0.59 ± 0.01 µg/mL (≈ 1.88 µM); in data set [8] (HepG2, Table 1, natural phenanthrenes), 0.21 ± 0.01 µg/mL (≈ 0.668 µM). Moreover, the IC50 in data set [8] (setting [16]) is 0.08 µg/mL (≈ 0.255 µM); in [9] (A549, Table 1, natural phenanthrenes), 0.11 µg/mL (≈ 0.35 µM); in [9] (setting [17]), 0.14 ± 0.02 µg/mL (≈ 0.445 µM). Moreover, the MCF-7 activity class (from IC50) in [2] is less than 1 µg/mL. Moreover, the “fold greater cytotoxic activity than denbinobin (6b)” value in data set [4] (HepG2, Hep3B, Ca9-22, A549, MEA-MB-231 and MCF7 cancer cell lines) is given as “up to 7 fold”. Besides, in data set [6] (100 µmol/L), the “inhibition on Topo IIα (supercoiled DNA instead of relaxed)” value was “showed the inhibition on Topo IIα”. Besides, the “formation of linear DNA (Topo IIα DNA cleavage complex)” value in data set [6] was “induced the formation of linear DNA”.
For the compound `COC1=CC(=O)c2ccc3cc(OC)c(OC)c(OC)c3c2C1=O` [Compound 5a, 3,5,6,7-Tetramethoxy-1,4-phenanthrenequinone], the IC50 in data set [1] (setting [11]) is more than 20 µg/mL; in [2] (setting [12]), 14.3 ± 0.5 µg/mL (≈ 43.5 µM); in data set [3] (setting [13]), more than 20 µg/mL; in data set [5] (setting [14]), 4.67 ± 0.81 µg/mL (≈ 14.2 µM); in data set [7] (setting [15]), 5.99 ± 0.24 µg/mL (≈ 18.2 µM); in data set [8] (setting [16]), 4.65 ± 0.07 µg/mL (≈ 14.2 µM). The IC50 in data set [9] (setting [17]) was found to be 11 ± 0.44 µg/mL (≈ 33.6 µM). The MCF-7 activity class (from IC50) in data set [2] is 1 to 20 µg/mL. Also, the “activity against all human cancer cell lines” value in data set [4] (all human cancer cell lines) is recorded as “marginal activities”. In [6] (200 µmol/L), the “inhibition on Topo IIα (supercoiled DNA instead of relaxed)” value is recorded as “had the similar effect”. In data set [6], the “formation of linear DNA (Topo IIα DNA cleavage complex)” value is recorded as “induced the formation of linear DNA”.
Regarding `O=C1C=CC(=O)C=C1` [1,4-benzoquinone], in data set [10], the “poisoning of human topoisomerase IIα” value is recorded as “poison human topoisomerase IIα”.
